According to patent US20180149606A1, “XENON BASED DRUG PROTEIN BINDING ASSAY” (priority 2016, published 2018):
Values belong to the molecule of their own block, whether it stands above or below them.

Tests used:
albumin [1] = molecular target: T1, albumin (Bos taurus, UniProt P02769); test: Xenon T2 relaxation measurement of drug binding to albumin (Tables 1 and 2); parameters: T2: unit not given here; conditions: 10 μM albumin, 9.4 T
Description: Hyperpolarized ^129Xe was generated in a rubidium cell hyperpolarizer, and bubbled into the solution.
Hyperpolarized ^129Xe was magnetized in a rubidium cell hyperpolarizer, and bubbled into the solution.
Target sequence in this assay (P02769 25-607): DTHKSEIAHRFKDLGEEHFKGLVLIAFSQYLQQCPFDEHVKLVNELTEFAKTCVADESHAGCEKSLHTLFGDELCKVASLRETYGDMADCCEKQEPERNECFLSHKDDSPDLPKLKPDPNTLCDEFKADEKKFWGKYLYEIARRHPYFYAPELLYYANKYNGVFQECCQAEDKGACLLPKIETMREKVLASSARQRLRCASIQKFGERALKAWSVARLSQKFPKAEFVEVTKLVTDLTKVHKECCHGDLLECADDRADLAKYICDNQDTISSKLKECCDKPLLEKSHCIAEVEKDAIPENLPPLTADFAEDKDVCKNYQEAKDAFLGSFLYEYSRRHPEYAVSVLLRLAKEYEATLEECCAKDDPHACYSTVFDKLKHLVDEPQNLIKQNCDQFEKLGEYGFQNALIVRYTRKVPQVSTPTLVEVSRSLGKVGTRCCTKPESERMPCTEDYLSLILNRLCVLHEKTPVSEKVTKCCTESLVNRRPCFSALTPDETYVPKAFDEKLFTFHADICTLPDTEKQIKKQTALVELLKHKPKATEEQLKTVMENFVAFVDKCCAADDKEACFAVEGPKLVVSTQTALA

bovine serum albumin = bovine serum albumin (Bos taurus, UniProt P02769); test: Drug titration of xenon T2 in 10 μM fatty acid free bovine serum albumin; assay type: binding; conditions: for effect on the xenon T2 of albumin: titration up to 1 mM drug, 9.4 T, 25 degrees Celsius
bovine serum albumin, sequence (P02769 25-607): as above
Experimental: The following experiments were performed with fatty acid free bovine serum albumin. It is important to note whether the albumin one uses contains fatty acids both because the fats will alter the binding affinity of a drug and also because they alter the relaxivity of albumin. The drug titrations were performed by preparing a 10 μM solution of bovine serum albumin into which aliquots of high concentration drug solutions were added. Most drugs, as well as all protein solutions, were dissolved in 1×PBS buffer. It is important to keep the pH of the solution constant when studying albumin because that protein has many different pH dependent conformations.
All solutions were made by dissolving the drugs in 1×PBS, with the exception of the tenoxicam solution. The T2 times of solutions containing high concentrations of drugs were measured. […] For the tenoxicam solution, about 400 μL of DMSO was added to a 10 mL solution of 1×PBS.
T2 times were measured using a standard CPMG pulse sequence with 100 ms long echo spacings. All experiments were performed at 9.4 Tesla using hyperpolarized xenon. This hyperpolarized xenon was prepared using a homebuilt spin exchange optical pumping based polarizer. The protein solution was attached to the polarizer's flow system and the pressurized to 60 psi. Xenon was bubbled into the protein solution at a rate of about 0.1 standard liters per minute. The gas mixture used contained 2% xenon, with the rest of the gases being helium and nitrogen. All experiments were performed at 25 degrees Celsius.
All protein solutions required the addition of an antifoaming agent in order to prevent the xenon from forcing the sample out of the NMR tube. […] 1-octanol was used as the antifoaming agent in this experiment. The concentration of 1-octanol used was 5 μL of alcohol per 10 mL of solution.

albumin [2] = molecular target: T1, albumin; parameters: other: bovine serum albumin whenever possible, close to 25 degrees Celsius; highest; conditions: bovine serum albumin whenever possible, close to 25 degrees Celsius; highest affinity site; cited from earlier work

T2 (albumin [1]; 70 μM flucloxacillin): 0.91 ± 0.04
T2 (albumin [1]; 200 μM flucloxacillin): 0.99 ± 0.04
T2 (albumin [1]; 250 μM flucloxacillin): 1.53 ± 0.05
T2 (albumin [1]; 450 μM flucloxacillin): 0.97 ± 0.03
T2 (albumin [1]; 2000 μM flucloxacillin): 0.73 ± 0.04
effect on the xenon T2 of albumin, repeated titration (bovine serum albumin; higher concentrations of drug (beyond 1 mM), 10 μM BSA): no effect
effect on the xenon T2 of albumin (bovine serum albumin; 10 μM BSA): much weaker effect
SMILES: Cc1onc(-c2c(F)cccc2Cl)c1C(=O)N[C@@H]1C(=O)N2[C@@H]1SC(C)(C)[C@@H]2C(=O)O [Flucloxacillin, flucloxacillin]
Highest Binding Affinity log10(Ka) (albumin [2]): 4.6

SMILES: CN1C(C(=O)Nc2ccccn2)=C(O)c2sccc2S1(=O)=O [Tenoxicam, tenoxicam]
Highest Binding Affinity log10(Ka) (albumin [2]): 5.4

SMILES: CCCCCCCC/C=C\CCCCCCCC(=O)[O-].[Na+] [Sodium Oleate, sodium oleate]
increase of xenon T2 (bovine serum albumin; three times as much sodium oleate as albumin, 10 μM albumin): 3 s
effect on the xenon T2 of albumin (bovine serum albumin; 10 μM BSA): increased
Highest Binding Affinity log10(Ka) (albumin [2]): 8.0

SMILES: Cn1c(=O)c2c(ncn2C)n(C)c1=O [Caffeine, caffeine]
Xenon relaxation time, T2 (albumin [1]; 16 μM caffeine): 0.54 ± 0.04 s
Xenon relaxation time, T2 (albumin [1]; 43 μM caffeine): 0.47 ± 0.04 s
Xenon relaxation time, T2 (albumin [1]; 56 μM caffeine): 0.63 ± 0.04 s
Xenon relaxation time, T2 (albumin [1]; 100 μM caffeine): 0.69 ± 0.03 s
Xenon relaxation time, T2 (albumin [1]; 500 μM caffeine): 0.51 ± 0.03 s
Xenon relaxation time, T2 (albumin [1]; 5000 μM caffeine): 0.67 ± 0.04 s
Xenon relaxation time, T2 (albumin [1]; 80000 μM caffeine): 1.07 ± 0.03 s
Highest Binding Affinity log10(Ka) (albumin [2]): 4.3
